Data taken from patent US20250302808A1, “DEXMEDETOMIDINE TREATMENT REGIMENS” (BioXcel Therapeutics, Inc., priority 2021, published 2025).
Like-named read-outs stand apart in the source and are kept apart here.

Columns and labels:
[1] = Description: This was an adaptive Phase Ib/2 trial design. It was a randomized, double-blind, placebo-controlled, multiple ascending dose study assessing efficacy, pharmacokinetics, safety and tolerability of dexmedetomidine hydrochloride dosing in adult (65 years old and older) males and females with acute agitation associated with dementia.
The drug film was retained in the sublingual cavity until dissolved. Participants were also evaluated for local irritation around the area where the film was placed. Efficacy and safety assessments were conducted periodically before and after dosing. The next cohort was dosed after completing accrual of most prior panels, in accord with regular ongoing periodic safety and PK review as eligible subjects were assigned, dosed, and data became available.
Blood samples (4 mL) were collected at 0.5, 1, 2, 4, 8- and 24-hours post-dose per Schedule of Events (Table 9A).
All pharmacokinetic parameters were calculated using non-compartmental analysis using WinNonlin. Actual sampling times were used in all pharmacokinetic analyses. […] Other PK analyses might be performed as appropriate.
Plasma samples were collected at 0.5, 1, 2, (2.5 in re-dose subjects), 4 and 8 hr.

[2] = system: opioid withdrawal symptoms
Description: (§1) • COWS and SOWS scores during Days 6-12. COWS and SOWS scores on Days 6-12 were analyzed using a mixed-effects, repeated-measures model. […] Kaplan-Meier estimates were used to generate survival curves for each treatment group. […] Differences in mean agitation and sedation were compared between the treatment groups using the same mixed-effects, repeated-measures model described above.

opioid withdrawal = system: opioid withdrawal
Description: as §1
Kaplan-Meier estimates were also used to generate survival curves over time in each treatment group. Logistic regression model was used to compare the dexmedetomidine hydrochloride oromucosal film and placebo groups on the numbers of subjects dropping out after opioid discontinuation.

[3] = remark: listed apart in the source
Description: Blood samples (4 ml) were collected for pharmacokinetic analysis on inpatient Study Days 6 and 12 at 0, 2, 6, and 12 hours after the first dose of dexmedetomidine hydrochloride oromucosal film on Study Days 6 and 12.
Plasma concentration data for dexmedetomidine were analyzed by a popPK approach and reported separately. The plasma concentration data from this study were combined with PK data from other studies to develop the population PK model. The model was used to estimate exposure measures in subjects in this study through a modeling and simulation approach. • Interim data: The demographic data and baseline characteristics are given in Table 15C.

[4] = system: elderly dementia patients
Description: AEs, clinical laboratory tests, 12-lead ECG, Johns Hopkins Fall Risk Assessment score, and vital signs were monitored, and all observed and volunteered AEs were recorded. Blood pressure, heart rate and ECG were completed per schedule of assessments. Any abnormal clinically significant (investigator determined) vital sign measurement, clinical laboratory test, physical examination finding, or ECG parameter were repeated, until the value returned to baseline (or within normal limits) or the investigator deemed the abnormality to be of no clinical significance. Orthostatic assessments followed the CDC guidelines for the elderly (e.g. blood pressure upon standing for 1, 3 and 5 minutes). Safety and tolerability assessments were continued until the morning of Day 2 and Day 3 and were repeated on Day 7=2 days.
Safety was assessed during the study by the monitoring and recording of AEs, clinical laboratory test results (hematology, biochemistry, and urinalysis), vital sign measurements (systolic and diastolic blood pressures, heart rate measured as pulse, respiratory rate, and temperature), ECG, and physical examination findings.
Adverse events (AEs) were characterized by type, severity, seriousness, and relationship to treatment. Adverse events were coded by preferred term and system organ class using MedDRA version 20.0.

[5] = system: subjects undergoing opioid withdrawal; conditions: Fishman et al. 2019, cited from earlier work

Structure (SMILES)	exposure levels in elderly dementia patients vs schizophrenia patients ([1]; Table 9E)	AUC higher in dementia patients than in schizophrenia (and bipolar disorder) patients ([1]; same dose)	Cmax higher in dementia patients than in schizophrenia (and bipolar disorder) patients ([1]; same dose)	subjective rating of insomnia on SOWS scale ([2]; Day 7, about 240 μg twice daily)	ratings of anxiety or irritability on COWS scale ([2]; Day 8, about 240 μg twice daily)	retention rate (opioid withdrawal; Day 6, 120 μg dose)	retention rate (opioid withdrawal; Day 6, 180 μg dose)	plasma concentration as dose increased ([3]; 30 μg to 240 μg, days 6 and 12)	mean plasma concentrations between 2-hour and 12-hour timepoints ([3]; all doses)	consequences of doses higher than about 90 μg [4]	Adverse Event Bradycardia ([5]; 2.16 mg (N = 229))	Adverse Event Dizziness ([5]; 2.16 mg (N = 229))	Adverse Event Orthostatic hypotension ([5]; 2.16 mg (N = 229))	Adverse Event Somnolence ([5]; 2.16 mg (N = 229))	Adverse Event Bradycardia ([5]; 2.88 mg (N = 229))	Adverse Event Dizziness ([5]; 2.88 mg (N = 229))	Adverse Event Orthostatic hypotension ([5]; 2.88 mg (N = 229))	Adverse Event Somnolence ([5]; 2.88 mg (N = 229))
Cc1cccc([C@H](C)c2cnc[nH]2)c1C [dexmedetomidine, (+) 4-(S)-[1-(2,3-dimethylphenyl)ethyl]-1H-imidazole]	higher exposure levels	about 55%	about 38%	significant reduction	significant reduction	at least 40%	at least 50%	dose dependent increases	declined over time	negative consequences								
CC(Oc1c(Cl)cccc1Cl)C1=NCCN1 (stereo not drawn) [lofexidine]											54 (24) n (%)	44 (19) n (%)	67 (29) n (%)	25 (10.9) n (%)	70 (32) n (%)	51 (23.0) n (%)	94 (42) n (%)	29 (13.1) n (%)
